The target in one data set is T1, NMDA NR1/NR2B receptor (Homo sapiens, UniProt Q05586+Q13224).
T1 construct: host or cells: HEK293, tetracycline-inducible expression
The data set can be described thus: In vitro NMDA NR1/NR2b cell assay (FLIPR, intracellular calcium induced by glycine/glutamate). Format: cell-based. Particulars: HEK293 cells expressing NMDA NR1/NR2B, 20 μM glycine, 1 μM glutamate, compounds of the invention (Table 1). The procedure:
A human HEK293 cell line with tetracyclin-inducible expression of NMDA NR1/NR2B receptor was used as a test system for compound efficacy and potency. The cell line was purchased from ChanTest, Catalog # CT6121. Compound activity was determined by measuring the effect of compounds on intracellular calcium concentration induced by glycine/glutamate agonism in a FLIPRtetra system (Molecular Devices).
The cells were obtained as frozen cells in cryo-vials and stored until use at −150° C. Cells were grown in culture medium (DMEM/F12, 10% FBS, 5 μg/mL Blasticidin, 150 μg/mL Zeozin, 500 μg/mL Geneticin). […] For sub-culturing the cells were detached from flasks by Versene. For the assay, cells were detached, washed twice with induction medium (DMEM/F12 without glutamine, 10% FBS, 2 μg/mL Tetracycline, 2 mM Ketamine) and seeded to 384 well pure coat amine plates (BD 359324, 50000 cells per well in 50 μl) 48 h prior to assay in induction medium.
The test compounds were dissolved in 100% DMSO at a concentration of 10 mM and in a first step diluted in DMSO to a concentration of 5 mM, followed by serial dilution steps in 100% DMSO. Dilution factor and number of dilution steps may vary according to needs. Typically 8 different concentrations by 1:5 dilutions were prepared in duplicate, further intermediate dilutions (1:37.5) of the substances were carried out with aqueous assay buffer (137 mM NaCl, 4 mM KCl, 1.8 mM CaCl, 10 mM HEPES, 10 mM Glucose, pH 7.4) resulting in a compound concentration 3 times above the final test concentration and DMSO at 2.7% resulting in 0.9% final DMSO concentration in the assay.
At the assay day cells were washed 3× with assay puffer, 10 μL buffer remained in the wells after washing. 10 μL Ca kit loading buffer (AAT Bioquest) was added to the cells and the plates were incubated with lid for 60 minutes at r.t. 20 μl assay buffer containing 60 μM glycine (20 μM final) and 3 μM glutamate (1 μM final) was added to column 1-23. Fluorescence (indicating the calcium influx as a result of the NR1/NR2B ion channel activation) was read on the FLIPRtetra device for 60 seconds to monitor the glutamate induced effects. After 2 minutes 20 μL of compound or controls (row 1-22) in assay buffer were carefully added to the wells. […] The average of 2 measurements at 5 minutes and 5 min 10 seconds after compound addition is calculated and further used for IC50 calculations. Each assay microtiter plate contained wells (in column 23 or 24) with DMSO controls instead of compound as controls for glycine/glutamate induced fluorescence (high controls) and wells with 1 μM of a reference NR2b NAM as low controls (Compound 22; reference: Layton, Mark E et al, ACS Chemical Neuroscience 2011, 2(7), 352-362).
The output file of the reader contains the well number and measured average fluorescence units. For data evaluation and calculation, the measurement of the low control was set as 0% control and the measurement of the high control was set as 100% control. The IC50 values were calculated using the standard 4 parameter logistic regression formula. Calculation: [y=(a−d)/(1+(x/c)^b)+d], a=low value, d=high value; x=conc M; c=IC50 M; b=slope.
On the technique in general: A change in cytosolic calcium serves as a functional read-out for many receptors and channels.

The nature of data set [1]: Metabolic stability in pooled human liver microsomes. The following applies: pH 7.6; pooled human liver microsomes 1 mg/mL, 1 μM compound, 37° C., NADPH; read-out: Half-life - t½ human liver microsomes. Format: in vitro ADME. The source says:
Stability in human liver microsomes refers to the susceptibility of compounds to biotransformation in the context of selecting and/or designing drugs with favorable pharmacokinetic properties. The primary site of metabolism for many drugs is the liver. Human liver microsomes contain the cytochrome P450s (CYPs), and thus represent a model system for studying drug metabolization in vitro. Enhanced stability in human liver microsomes is associated with several advantages, including increased bioavailability and adequate half-life, which can enable lower and less frequent dosing of patients. Thus, enhanced stability in human liver microsomes is a favorable characteristic for compounds that are to be used for drugs.
The metabolic degradation of the test compound was assayed at 37° C. with pooled human liver microsomes. The final incubation volume of 60 μl per time point contains TRIS buffer pH 7.6 at room temperature (0.1 M), magnesium chloride (5 mM aqueous solution), microsomal protein (1 mg/mL for human) and the test compound at a final concentration of 1 μM. Following a short preincubation period at 37° C., the reactions were initiated by addition of betanicotinamide adenine dinucleotide phosphate, reduced form (NADPH, 1 mM), and terminated by transferring an aliquot into solvent after different time points. After centrifugation (10000 g, 5 min), an aliquot of the supernatant was assayed by LC-MS/MS for the amount of parent compound. The half-life was determined by the slope of the semi-logarithmic plot of the concentration-time profile.

The next data set concerns the target T2, human MDR1 (P-gp) (Homo sapiens, UniProt P08183).
T2 construct: expressed in transfected cells; host or cells: MDCKII (Madin-Darby canine kidney) cells
The data set can be described thus: MDCK assay MDR-1 (p-GP): permeability across MDCK-MDR1 monolayers. The following applies: for Papp A→B: MDCK-MDR1 monolayers, apical-to-basal, pH 7.4, 1 or 10 μM; for efflux ratio: pH 7.4, MDCK-MDR1, Papp (b-a) divided by Papp (a-b). Format: in vitro ADME. The procedure: The MDCK assays provide information on the potential of a compound to pass the blood brain barrier. Permeability measurements across polarized, confluent MDCK-MDR1 cell monolayers grown on permeable filter supports are used as an in vitro absorption model: apparent permeability coefficients (PE) of the compounds across the MDCK-MDR1 cell monolayers are measured (pH 7.4, 37° C.) in apical-to-basal (AB) and basal-to-apical (BA) transport direction. The AB permeability (PEAB) represents drug absorption from the blood into the brain and the BA permeability (PEBA) drug efflux from the brain back into the blood via both, passive permeability as well as active transport mechanisms mediated by efflux and uptake transporters that are expressed on the MDCK-MDR1 cells, predominantly by the overexpressed human MDR1. Identical or similar permeabilities in both transport directions indicate passive permeation, vectorial permeability points to additional active transport mechanisms. Higher PEBA than PEAB (PEBA/PEAB >5) indicates the involvement of active efflux mediated by MDR1, which might compromise the goal to achieve sufficient brain exposure. Therefore, this assay provides valuable support for selection of compounds applicable for further in vivo testing. High permeability not limited by efflux at the blood brain barrier is a favourable characteristic for compounds that are to be used for drugs acting primarily in the CNS. Similar concepts are applicable to the MDCK BCRP assay and its interpretation; consequently, to ensure high permeability at the blood brain barrier, it is highly preferred to minimize the efflux (efflux <5) at both MDR1 and BCRP transporters.
Apparent permeability coefficients (Papp) of the compounds across the MDCK-MDR1 monolayers (MDCKII cells transfected with human MDR1 cDNA expression plasmid) are measured in apical-to-basal (AB) and basal-to-apical (BA) direction.
MDCK-MDR1 cells (6×10^5 cells/cm^2) are seeded on filter inserts (Corning, Transwell, polycarbonate, 0.4 μm pore size) and cultured for 9 to 10 days. Compounds dissolved in DMSO stock solution (1-20 mM) are diluted with HTP-4 aqueous buffer (128.13 mM NaCl, 5.36 mM KCl, 1 mM MgSO4, 1.8 mM CaCl2, 4.17 mM NaHCO3, 1.19 mM Na2HPO4, 0.41 mM NaH2PO4, 15 mM HEPES, 20 mM glucose, pH 7.4) supplemented with 0.25% BSA to prepare the transport solutions (final concentration: 1 or 10 μM, final DMSO <=0.5%). The transport solution is applied to the apical or basolateral donor side for measuring A-B or B-A permeability, respectively. The receiver side contains HTP-4 buffer supplemented with 0.25% BSA. Samples are collected at the start and end of experiment from the donor and at various time intervals for up to 2 hours also from the receiver side for concentration measurement by HPLC-MS/MS. Sampled receiver volumes are replaced with fresh receiver solution. Efflux ratio is calculated dividing the Papp (b-a) values by the Papp (a-b) values.

By IC50 is commonly meant the concentration that inhibits the measured activity by half. A word on the half-life: it is how long it takes for the measured level to halve. The term Papp A→B denotes the apparent permeability from the apical to the basolateral side of a cell layer. Read a high Papp A→B as ready permeation. In general, efflux ratio refers to a quotient of directional permeabilities that is used to spot active efflux.

T1 sequence (Q13224 27-1484, other chains not shown): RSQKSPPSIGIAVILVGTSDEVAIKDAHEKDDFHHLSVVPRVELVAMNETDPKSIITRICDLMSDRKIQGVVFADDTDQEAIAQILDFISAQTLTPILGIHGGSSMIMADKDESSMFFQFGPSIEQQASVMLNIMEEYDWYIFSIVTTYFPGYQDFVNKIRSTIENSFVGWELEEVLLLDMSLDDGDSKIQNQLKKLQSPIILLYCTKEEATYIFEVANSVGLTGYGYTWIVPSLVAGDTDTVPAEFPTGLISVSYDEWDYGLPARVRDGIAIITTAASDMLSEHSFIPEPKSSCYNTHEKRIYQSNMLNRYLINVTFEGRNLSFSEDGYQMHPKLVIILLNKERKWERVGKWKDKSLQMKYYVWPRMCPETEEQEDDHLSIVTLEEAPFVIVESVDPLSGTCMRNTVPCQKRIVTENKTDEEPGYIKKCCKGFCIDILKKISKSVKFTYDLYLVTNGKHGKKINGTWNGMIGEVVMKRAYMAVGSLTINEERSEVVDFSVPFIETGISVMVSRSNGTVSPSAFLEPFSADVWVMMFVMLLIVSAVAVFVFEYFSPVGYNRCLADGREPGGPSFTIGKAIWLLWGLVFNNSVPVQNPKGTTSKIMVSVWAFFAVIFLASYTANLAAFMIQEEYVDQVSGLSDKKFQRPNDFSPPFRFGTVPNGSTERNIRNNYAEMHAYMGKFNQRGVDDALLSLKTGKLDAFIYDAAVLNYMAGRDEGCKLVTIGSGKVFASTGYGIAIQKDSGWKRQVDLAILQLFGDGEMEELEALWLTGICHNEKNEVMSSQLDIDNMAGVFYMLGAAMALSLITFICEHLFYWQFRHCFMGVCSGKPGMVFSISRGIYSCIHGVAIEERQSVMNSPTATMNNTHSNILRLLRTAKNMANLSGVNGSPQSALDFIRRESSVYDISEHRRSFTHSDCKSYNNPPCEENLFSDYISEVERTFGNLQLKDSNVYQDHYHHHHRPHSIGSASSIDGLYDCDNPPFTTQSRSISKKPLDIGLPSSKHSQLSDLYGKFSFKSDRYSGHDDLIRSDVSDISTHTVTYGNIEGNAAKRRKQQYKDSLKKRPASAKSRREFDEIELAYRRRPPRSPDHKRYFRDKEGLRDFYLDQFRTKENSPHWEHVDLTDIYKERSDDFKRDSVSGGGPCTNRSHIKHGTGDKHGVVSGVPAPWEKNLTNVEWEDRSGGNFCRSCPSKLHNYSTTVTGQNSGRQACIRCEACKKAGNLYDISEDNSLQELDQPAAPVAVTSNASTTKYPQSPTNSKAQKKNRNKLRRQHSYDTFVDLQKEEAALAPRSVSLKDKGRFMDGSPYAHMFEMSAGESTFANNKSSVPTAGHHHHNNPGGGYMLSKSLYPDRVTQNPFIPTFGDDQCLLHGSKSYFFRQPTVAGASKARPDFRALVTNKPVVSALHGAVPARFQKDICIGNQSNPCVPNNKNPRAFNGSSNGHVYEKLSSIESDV
T2 sequence (P08183 whole entry): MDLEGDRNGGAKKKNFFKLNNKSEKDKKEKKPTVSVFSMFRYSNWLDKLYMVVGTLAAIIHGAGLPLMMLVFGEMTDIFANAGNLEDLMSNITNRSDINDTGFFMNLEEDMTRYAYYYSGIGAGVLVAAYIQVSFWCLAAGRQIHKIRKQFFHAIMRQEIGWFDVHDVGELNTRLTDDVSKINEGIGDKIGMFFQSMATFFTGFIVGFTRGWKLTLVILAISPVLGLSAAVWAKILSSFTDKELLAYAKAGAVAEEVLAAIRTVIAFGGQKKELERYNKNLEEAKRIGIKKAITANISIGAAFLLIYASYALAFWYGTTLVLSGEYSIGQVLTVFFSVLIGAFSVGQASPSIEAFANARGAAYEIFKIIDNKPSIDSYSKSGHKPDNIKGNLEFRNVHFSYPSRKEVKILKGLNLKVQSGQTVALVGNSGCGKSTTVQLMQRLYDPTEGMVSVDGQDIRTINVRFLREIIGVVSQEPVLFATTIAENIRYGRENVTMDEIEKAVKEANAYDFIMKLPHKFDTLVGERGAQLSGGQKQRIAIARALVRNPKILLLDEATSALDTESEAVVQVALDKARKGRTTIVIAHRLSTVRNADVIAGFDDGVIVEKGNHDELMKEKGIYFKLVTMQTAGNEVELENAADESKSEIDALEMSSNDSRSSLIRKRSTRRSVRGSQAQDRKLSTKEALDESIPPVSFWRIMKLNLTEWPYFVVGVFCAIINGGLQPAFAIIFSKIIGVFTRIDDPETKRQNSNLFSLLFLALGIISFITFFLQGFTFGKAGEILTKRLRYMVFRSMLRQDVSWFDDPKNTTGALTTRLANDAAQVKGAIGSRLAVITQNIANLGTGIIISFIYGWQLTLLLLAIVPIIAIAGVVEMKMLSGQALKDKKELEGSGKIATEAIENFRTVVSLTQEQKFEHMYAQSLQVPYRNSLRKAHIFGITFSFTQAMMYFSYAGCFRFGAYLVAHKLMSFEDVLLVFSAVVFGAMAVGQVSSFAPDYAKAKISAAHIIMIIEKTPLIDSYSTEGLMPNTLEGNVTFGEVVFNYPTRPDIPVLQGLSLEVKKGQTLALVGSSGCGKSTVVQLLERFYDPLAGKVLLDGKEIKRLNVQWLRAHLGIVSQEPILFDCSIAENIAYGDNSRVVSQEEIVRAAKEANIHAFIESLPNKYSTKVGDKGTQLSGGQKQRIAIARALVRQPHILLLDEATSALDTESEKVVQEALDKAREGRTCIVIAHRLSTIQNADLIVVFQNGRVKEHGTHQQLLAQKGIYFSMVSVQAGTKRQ

Take `Cc1cc(F)ccc1COC(=O)N1CCO[C@H](c2nc3cccnc3[nH]2)C1` [Example 4]: on NMDA NR1/NR2B receptor, the IC50 was determined as 228 nM. In addition, in data set [1], the half-life at 1 µM turned out to be 24 min.

Turning to `Cc1ccnc2[nH]c([C@@H]3CN(C(=O)OCc4ccc(F)cc4)CCO3)nc12` [Example 6], the IC50 at NMDA NR1/NR2B receptor was determined as 475 nM. Further, at human MDR1 (P-gp), the Papp A→B stood at 44.4 ×10⁻⁶ cm/s and the efflux ratio was determined as 1.48. In addition, the half-life at 1 µM in data set [1] turned out to be 40 min.

With `Cc1cccc(COC(=O)N2CCO[C@H](c3nc4cccnc4[nH]3)C2)c1` [Example 9], on NMDA NR1/NR2B receptor, the 50% inhibitory concentration (IC50) was determined as 293 nM. At human MDR1 (P-gp), the Papp A→B came out at 49 ×10⁻⁶ cm/s and the efflux ratio came to 1.16. Besides, the half-life at 1 µM in data set [1] stood at 22 min.

For `O=C(OCc1ccc(F)c(F)c1)N1CCO[C@H](c2nc3cccnc3[nH]2)C1` [Example 24], the IC50 at NMDA NR1/NR2B receptor came to 748 nM.

On to `O=C(OCc1ccc(Cl)c(F)c1)N1CCO[C@H](c2nc3cccnc3[nH]2)C1` [Example 25], for which the IC50 on NMDA NR1/NR2B receptor amounted to 477 nM.

The record behind these values is US10849907B2, “Imidazopyridine derivatives and the use thereof as medicament” (Boehringer Ingelheim International GmbH, priority 2017, dated 2020).
